Some test systems named below: EKVX NSCLC; KM12 colon; U251 CNS; MDA-MB-435; NCI-H226 lung; UACC-62 melanoma; ACHN renal; OVCAR-4 ovarian; HOP-92 NSCLC; SNB-19 CNS.
Common to all, as to test: NCI tumour cell line growth inhibition, 48 h

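Cultured in 96-well plates, cells were exposed to test compound for 48 hours across five concentrations. Here, GI50 denotes the concentration required for 50% inhibition of growth. The concentration for full growth arrest is given as TGI.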

In the case of `Cc1ccc(C(=O)C2=CN=C3C(=O)N(c4ccccc4)N(C)C3(C)C2=N)cc1` (centres undefined), the TGI in the assay on EKVX NSCLC, in the assay with KM12 colon, in the assay on U251 CNS, in the assay with MDA-MB-435, with NCI-H226 lung and with UACC-62 melanoma was above 100 µM in each case. In addition, the TGI with ACHN renal, in the assay on OVCAR-4 ovarian and in the assay with HOP-92 NSCLC was above 100 µM throughout.

On to `COC12OC3CC4(C)C(=CC3OC(OC(C)C1O)C2O)CCC1C4CCC2(C)C(c3ccc(=O)oc3)CCC12O` (centres undefined), for which the TGI in the assay with EKVX NSCLC is below 0.001 µM; in the assay with KM12 colon it was 0.00739 µM; in the assay on U251 CNS it was 0.00277 µM; in the assay on MDA-MB-435, 0.00564 µM; with NCI-H226 lung it was 0.00676 µM; in the assay with UACC-62 melanoma it was 0.00472 µM. Besides, the TGI was 0.00449 µM in the assay with ACHN renal, 0.00455 µM with SNB-19 CNS, 0.00199 µM with OVCAR-4 ovarian and 0.0347 µM with HOP-92 NSCLC.

Take `COc1ccc(NCc2cnc3nc(N)nc(N)c3c2C)cc1`: the TGI with EKVX NSCLC is above 100 µM; in the assay with KM12 colon, above 100 µM; in the assay with U251 CNS, above 100 µM; with MDA-MB-435, above 100 µM; in the assay on NCI-H226 lung, above 93.9 µM; in the assay with UACC-62 melanoma, above 100 µM. Besides, the TGI in the assay with ACHN renal is above 100 µM; in the assay with SNB-19 CNS it was above 100 µM; in the assay on OVCAR-4 ovarian, above 100 µM; in the assay on HOP-92 NSCLC, above 89.5 µM.

`CC(=O)NC(C)c1ccc(N=NN2CCCC2)cc1` (centres undefined): the TGI with EKVX NSCLC, in the assay with KM12 colon, with U251 CNS, in the assay with MDA-MB-435, with NCI-H226 lung and in the assay with ACHN renal was above 100 µM in each case. In addition, the TGI in the assay on SNB-19 CNS, in the assay with OVCAR-4 ovarian and in the assay with HOP-92 NSCLC was above 100 µM throughout.

As to `O=C(NN1C(=O)CSC1c1ccco1)c1ccncc1` (centres undefined), the TGI in the assay on EKVX NSCLC, with KM12 colon, with U251 CNS, in the assay on MDA-MB-435, with NCI-H226 lung and in the assay with UACC-62 melanoma was above 100 µM throughout. Further, the TGI in the assay with ACHN renal, in the assay on SNB-19 CNS, in the assay on OVCAR-4 ovarian and with HOP-92 NSCLC was above 100 µM each time.

`COc1cc2c(cc1OC(=O)c1cc3ccccc3[nH]1)N=C[C@@H]1CCCN1C2=O`: the TGI in the assay with EKVX NSCLC amounted to 3.2 µM; in the assay on KM12 colon it was 3.15 µM; in the assay with U251 CNS, 3.52 µM; in the assay on MDA-MB-435, 1.19 µM; with NCI-H226 lung, 5.97 µM; in the assay on UACC-62 melanoma, 0.707 µM. In addition, the TGI is 13 µM in the assay on ACHN renal, 3.04 µM in the assay with SNB-19 CNS, 2.15 µM in the assay with OVCAR-4 ovarian and above 100 µM in the assay on HOP-92 NSCLC.

As for `CCOC(=O)C1=CC(C)(C(=O)OCC)Nc2c(nc(SC)n(C)c2=O)N1` (centres undefined), the TGI in the assay on EKVX NSCLC, in the assay on KM12 colon, in the assay on U251 CNS, with MDA-MB-435, in the assay on NCI-H226 lung and with ACHN renal was above 10 µM in each case. Also, the TGI with SNB-19 CNS, in the assay on OVCAR-4 ovarian and with HOP-92 NSCLC was above 10 µM each time.

Regarding `CCOC(=O)c1nc2cc(C(F)(F)F)ccc2nc1Nc1ccc(F)cc1`, the TGI with EKVX NSCLC, with KM12 colon, in the assay on U251 CNS, in the assay on MDA-MB-435, with NCI-H226 lung and in the assay with UACC-62 melanoma was above 100 µM each time. Further, the TGI was found to be 86.1 µM in the assay on OVCAR-4 ovarian and 49.6 µM with HOP-92 NSCLC.

`O=c1oc2c/c(=C\c3ccccc3)c(=O)c3cccc1c3-2`: the TGI in the assay on EKVX NSCLC was above 100 µM; with KM12 colon, 56.3 µM; in the assay on U251 CNS, 37.2 µM; in the assay on MDA-MB-435, 51.7 µM; in the assay with NCI-H226 lung, 75.3 µM; in the assay on UACC-62 melanoma, 59.9 µM. Besides, the TGI in the assay on ACHN renal was above 100 µM; with SNB-19 CNS, 67.9 µM; in the assay with HOP-92 NSCLC, 41.6 µM.

With `COc1ccc(/C=N\NC(=O)Nc2cccc3ccccc23)cc1`, the TGI was 95.2 µM with EKVX NSCLC; above 100 µM with KM12 colon; 36.5 µM with U251 CNS; above 100 µM in the assay with MDA-MB-435; 83.7 µM with NCI-H226 lung; 66.6 µM with ACHN renal. Moreover, the figures for the TGI with SNB-19 CNS, in the assay with OVCAR-4 ovarian and in the assay with HOP-92 NSCLC were 36.8 µM, 43.2 µM and 42.1 µM, respectively.

Take `Cn1cc(-c2nc(-c3c[nH]c4ccncc34)cs2)c2cc(F)ccc21`: the GI50 in the assay with EKVX NSCLC is 1.72 µM; in the assay on KM12 colon, 1.63 µM; in the assay on U251 CNS, 1.8 µM; with MDA-MB-435, 1.64 µM; in the assay on NCI-H226 lung, 1.92 µM; in the assay with UACC-62 melanoma, 1.71 µM. Besides, the GI50 in the assay with ACHN renal was 1.74 µM; in the assay on SNB-19 CNS it was 1.83 µM; in the assay with HOP-92 NSCLC, 1.65 µM. Moreover, the TGI with EKVX NSCLC was found to be 3.32 µM; in the assay on KM12 colon, 3.11 µM; with U251 CNS it was 3.29 µM; with MDA-MB-435, 3.06 µM; in the assay with NCI-H226 lung, 3.9 µM; in the assay on UACC-62 melanoma it was 3.18 µM. For the same compound, the TGI in the assay with ACHN renal was found to be 3.12 µM; in the assay with SNB-19 CNS, 3.38 µM; with HOP-92 NSCLC, 3.42 µM.

On to `O=C(O)CN(CC(=O)O)Cc1ccn(-c2cccc(-n3ccc(CN(CC(=O)O)CC(=O)O)n3)n2)n1`, for which the TGI in the assay on EKVX NSCLC, in the assay on KM12 colon, in the assay on U251 CNS, in the assay with MDA-MB-435, with NCI-H226 lung and in the assay with UACC-62 melanoma was above 100 µM throughout. The TGI in the assay on ACHN renal, with SNB-19 CNS and in the assay on HOP-92 NSCLC was above 100 µM each time.

As to `CCCCCCCCCCCCCCCCCCOc1ccc(/C=C/C2=[N+](CCCl)CCO2)cc1`, the TGI in the assay on EKVX NSCLC, in the assay with KM12 colon, with U251 CNS, with MDA-MB-435, with UACC-62 melanoma and in the assay with ACHN renal was above 100 µM throughout. The TGI in the assay with SNB-19 CNS, in the assay with OVCAR-4 ovarian and in the assay with HOP-92 NSCLC was above 100 µM each time.

For the origin of these results see PubChem BioAssay (NCI).
